# Results reported in ChEMBL document CHEMBL3091360, “Homosecoiridoid alkaloids with amino acid units from the flower buds of Lonicera japonica” (J Nat Prod, 2013).
# Active and inactive are the calls of the source. The calls are words filed in the database; no cut-off is given here.
# What was measured:
# HCT-8 = test: Cytotoxicity against human HCT8 cells at 10 uM after 96 hrs by MTT assay; assay type: functional, cell-based
# MCF7 = test: Cytotoxicity against human MCF7 cells at 10 uM after 96 hrs by MTT assay; assay type: functional, cell-based
# BGC-823 = test: Cytotoxicity against human BGC823 cells at 10 uM after 96 hrs by MTT assay; assay type: functional, cell-based
# Bel-7402 = test: Cytotoxicity against human Bel7402 cells at 10 uM after 96 hrs by MTT assay; assay type: functional, cell-based
# A549 = test: Cytotoxicity against human A549 cells at 10 uM after 96 hrs by MTT assay; assay type: functional, cell-based
# KETR3 = test: Cytotoxicity against human Ketr3 cells at 10 uM after 96 hrs by MTT assay; assay type: functional, cell-based
# [1] = Antiinflammatory activity in rat polymorphonuclear leukocytes assessed as inhibition of PAF-induced release of glucuronidase at 10 uM; assay type: functional
# [2] = system: Human immunodeficiency virus 1; test: Antiviral activity against HIV1 infected in human 293T cells expressing VSV-G assessed as inhibition of viral p24 production at 10 uM after 48 hrs by ELISA; assay type: functional, organism-based
# Influenza A virus H3N2 = test: microbe, parasite or virus in culture; details: Hanfang/359/95
# Coxsackievirus B3 = test: Antiviral activity against Coxsackie virus B3 assessed as inhibition of viral replication; assay type: functional, organism-based; details: Enterovirus B
SMILES,Activity (HCT-8),Activity (MCF7),Activity (BGC-823),Activity (Bel-7402),Activity (A549),Activity (KETR3),inhibition at 10 µM [1] [%],inhibition [2],IC50 (Influenza A virus H3N2) [µM],IC50 (Coxsackievirus B3) [µM]
C=C[C@H]1[C@H](O[C@@H]2O[C@H](CO)[C@@H](O)[C@H](O)[C@H]2O)OC=C(C(=O)[O-])[C@H]1/C=C/c1cc(C(=O)O)c[n+]([C@@H](CC(C)C)C(=O)O)c1,inactive,inactive,inactive,inactive,inactive,inactive,< 30,inactive,10.3,
COC[C@H]1O[C@@H](n2cnc3c(N)ncnc32)[C@H](O)[C@@H]1O,inactive,inactive,inactive,inactive,inactive,inactive,< 30,inactive,3.4,
C=C[C@H]1[C@H](O[C@@H]2O[C@H](CO)[C@@H](O)[C@H](O)[C@H]2O)OC=C(C(=O)O)[C@H]1/C=C/c1ccc[n+]([C@H](Cc2ccccc2)C(=O)[O-])c1,inactive,inactive,inactive,inactive,inactive,inactive,53.8,inactive,6.8,12.3
Cc1cc(CCCOc2c(C)cc(-c3noc(C(F)(F)F)n3)cc2C)on1 [PLECONARIL],,,,,,,,,,0.3
O=C(/C=C/c1ccc(O)c(O)c1)O[C@@H]1C[C@](O)(C(=O)O)C[C@@H](OC(=O)/C=C/c2ccc(O)c(O)c2)[C@H]1O,inactive,inactive,inactive,inactive,inactive,inactive,< 30,inactive,4.9,
CCOC(=O)C1=C[C@@H](OC(CC)CC)[C@H](NC(C)=O)[C@@H](N)C1 [OSELTAMIVIR],,,,,,,,,1.3,
C=C[C@H]1[C@H](O[C@@H]2O[C@H](CO)[C@@H](O)[C@H](O)[C@H]2O)OC=C(C(=O)O)[C@H]1/C=C/c1ccc[n+]([C@@H](C)C(=O)[O-])c1,inactive,inactive,inactive,inactive,inactive,inactive,63.2,inactive,11.6,
C=C[C@H]1[C@H](O[C@@H]2O[C@H](CO)[C@@H](O)[C@H](O)[C@H]2O)OC=C(C(=O)OC)[C@H]1CC(=O)OC,inactive,inactive,inactive,inactive,inactive,inactive,< 30,inactive,,
O=C(OCc1ccccc1)c1c(O)cccc1O[C@@H]1O[C@H](CO)[C@@H](O)[C@H](O)[C@H]1O,inactive,inactive,inactive,inactive,inactive,inactive,< 30,inactive,,
O=C(/C=C/c1ccc(O)c(O)c1)O[C@@H]1[C@H](O)C[C@@](O)(C(=O)O)C[C@H]1OC(=O)/C=C/c1ccc(O)c(O)c1,inactive,inactive,inactive,inactive,inactive,inactive,< 30,inactive,10.2,
O=C(O)/C=C/c1ccc(O)c(O)c1 [CAFFEIC ACID],inactive,inactive,inactive,inactive,inactive,inactive,40.3,inactive,,
Nc1ncnc2c1ncn2[C@@H]1O[C@H](CO)[C@@H](O)[C@H]1O [ADENOSINE],inactive,inactive,inactive,inactive,inactive,inactive,< 30,inactive,,
C=C[C@H]1[C@H](O[C@@H]2O[C@H](CO)[C@@H](O)[C@H](O)[C@H]2O)OC=C(C(=O)O)[C@H]1/C=C/c1cc(C(=O)O)c[n+]([C@H](Cc2ccccc2)C(=O)[O-])c1,inactive,inactive,inactive,inactive,inactive,inactive,< 30,inactive,8.2,
